Source: patent US20150284674A1, “CAMPYLOBACTER BACTERIA AND DETECTION” (priority 2012, published 2015)
Converted amounts (≈) assume the structure as drawn. “And” between values parts separate entries of the source, which are not always exact repeats. Equal values may be shown once. “Also recorded” adds a separate entry of the source.

Assays:
[1] = tested on: Campylobacter novel strains; experiment: Antimicrobial susceptibility testing by agar dilution method (MIC); details: for Distribution (%) of MIC (μg/ml) 0.03: % of novel strains with MIC 0.03 μg/ml; for Distribution (%) of MIC (μg/ml) 0.06: % of novel strains with MIC 0.06 μg/ml; for Distribution (%) of MIC (μg/ml) 0.13: % of novel strains with MIC 0.13 μg/ml; for Distribution (%) of MIC (μg/ml) 0.25: % of novel strains with MIC 0.25 μg/ml; for Distribution (%) of MIC (μg/ml) 1: % of novel strains with MIC 1 μg/ml; for Distribution (%) of MIC (μg/ml) 2: % of novel strains with MIC 2 μg/ml; for Distribution (%) of MIC (μg/ml) 4: % of novel strains with MIC 4 μg/ml; for Distribution (%) of MIC (μg/ml) 8: % of novel strains with MIC 8 μg/ml; for Distribution (%) of MIC (μg/ml) 32: % of novel strains with MIC 32 μg/ml; for Distribution (%) of MIC (μg/ml) 64: % of novel strains with MIC 64 μg/ml;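 on all read-outs here: agar dilution MIC on HBA, used in place of the BSAC-recommended Iso-sensitest agar, across a panel of 14 antimicrobials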
Procedure: Antimicrobial susceptibility testing was performed using the agar dilution method for the Campylobacter novel strains against 14 antimicrobials. […] As the strains were unable to grow on the Iso-sensitest agar (ISA) recommended by the BSAC guidelines, HBA (Table 1) was used as an alternative media.

[2] = tested on: C. lari; details: taxon 18: C. lari; cited from earlier work
[3] = tested on: C. concisus; details: taxon 4: C. concisus; cited from earlier work
[4] = tested on: C. sputorum; details: taxon 22: C. sputorum; cited from earlier work
[5] = tested on: C. jejuni subsp. Doylei; details: taxon 15: C. jejuni subsp. Doylei; cited from earlier work
[6] = tested on: C. hyointestinalis subsp. hyointestinalis; details: taxon 12: C. hyointestinalis subsp. hyointestinalis; cited from earlier work
[7] = tested on: C. fetus subsp. fetus; details: taxon 7: C. fetus subsp. fetus; cited from earlier work
[8] = tested on: C. hyointestinalis subsp. lawsonii; details: taxon 13: C. hyointestinalis subsp. lawsonii; cited from earlier work
[9] = tested on: C. cuniculurom; details: taxon 5: C. cuniculurom; cited from earlier work
[10] = tested on: C. insulaenigrae; details: taxon 14: C. insulaenigrae; cited from earlier work
[11] = tested on: C. coli; details: taxon 3: C. coli; cited from earlier work
[12] = tested on: C. mucosalis; details: taxon 19: C. mucosalis; cited from earlier work
[13] = tested on: C. rectus; details: taxon 20: C. rectus; cited from earlier work
[14] = tested on: C. curvus; details: taxon 6: C. curvus; cited from earlier work
[15] = tested on: C. jejuni subsp. Jejuni; details: taxon 16: C. jejuni subsp. Jejuni; cited from earlier work
[16] = tested on: C. fetus subsp. venerealis; details: taxon 8: C. fetus subsp. venerealis; cited from earlier work
[17] = tested on: novel campylobacter isolates; experiment: Disc diffusion susceptibility to nalidixic acid and cephalothin (30 μg discs); assay type: cell-based; details: for Susceptibility to (30 μg disc): disc diffusion; on Susceptibility to (30 μg disc): key: S, susceptible; R, resistant
[18] = tested on: C. gracilis; details: taxon 9: C. gracilis; cited from earlier work
[19] = tested on: C. helveticus; details: taxon 10: C. helveticus; cited from earlier work
[20] = tested on: C. hominus; details: taxon 11: C. hominus; cited from earlier work
[21] = tested on: C. avium sp. Nov; details: taxon 1: C. avium sp. Nov; cited from earlier work
[22] = tested on: C. showae; details: taxon 21: C. showae; cited from earlier work
[23] = tested on: C. canadensis; details: taxon 2: C. canadensis; cited from earlier work
[24] = tested on: C. upsaliensis; details: taxon 23: C. upsaliensis; cited from earlier work
[25] = Campylobacter novel strains, agar dilution on HBA

## CC1(C)S[C@@H]2[C@H](NC(=O)[C@H](N)c3ccccc3)C(=O)N2[C@H]1C(=O)O [Ampicillin]
[1]; Campylobacter
  MIC50: 1 µg/mL (≈ 2.86 µM)
  MIC90: 2 µg/mL (≈ 5.72 µM)

## CCN1CCN(C(=O)N[C@@H](C(=O)N[C@@H]2C(=O)N3C(C(=O)O)=C(CSc4nnnn4C)CS[C@H]23)c2ccc(O)cc2)C(=O)C1=O [Cefoperazone]
[1]; Campylobacter
  MIC50: 64 µg/mL (≈ 99.1 µM)
  MIC90: 64 µg/mL (≈ 99.1 µM)

## CC(=O)OCC1=C(C(=O)O)N2C(=O)[C@@H](NC(=O)Cc3cccs3)[C@H]2SC1 [Cephalothin]
[2]
  resistance (share of strains positive): + (+, 90-100% of strains positive)
[3]
  resistance (share of strains positive): − (−, 0-10% of strains positive)
[4]
  resistance (share of strains positive): − (−, 0-10% of strains positive)
[5]
  resistance (share of strains positive): − (−, 0-10% of strains positive)
[6]
  resistance (share of strains positive): (−) ((−), 11-25% of strains positive)
[1]; Campylobacter
  MIC50: 32 µg/mL (≈ 80.7 µM)
  MIC90: 32 µg/mL (≈ 80.7 µM)
[7]
  resistance (share of strains positive): − (−, 0-10% of strains positive)
[8]
  resistance (share of strains positive): − (−, 0-10% of strains positive)
[9]
  resistance (share of strains positive): (+) ((+), 75-89% strains positive)
[10]
  resistance (share of strains positive): + (+, 90-100% of strains positive)
[11]
  resistance (share of strains positive): + (+, 90-100% of strains positive)
[12]
  resistance (share of strains positive): − (−, 0-10% of strains positive)
[13]
  resistance (share of strains positive): − (−, 0-10% of strains positive)
[14]
  resistance (share of strains positive): − (−, 0-10% of strains positive)
[15]
  resistance (share of strains positive): + (+, 90-100% of strains positive)
[16]
  resistance (share of strains positive): − (−, 0-10% of strains positive)
[17]; disc diffusion tests, 30 μg disc, novel Campylobacter strains overall
  susceptibility / resistance of the novel Campylobacter strains, in words: variable resistance; also recorded: some were sensitive
[17]; strain Farm 1 2009/1
  Susceptibility to (30 μg disc): R
[17]; strain Farm 1 2009/2
  Susceptibility to (30 μg disc): R
[17]; strain Farm 1 2011/1
  Susceptibility to (30 μg disc): R
[17]; strain Farm 1 2011/2
  Susceptibility to (30 μg disc): R
[17]; strain Farm 1 2011/3
  Susceptibility to (30 μg disc): R
[17]; strain Farm 1 2011/4
  Susceptibility to (30 μg disc): R
[17]; strain Farm 1 2011/5
  Susceptibility to (30 μg disc): R
[17]; strain Farm 1 2011/6
  Susceptibility to (30 μg disc): R
[17]; strain Farm 2 2011/1
  Susceptibility to (30 μg disc): S
[17]; strain Farm 2 2011/2
  Susceptibility to (30 μg disc): S
[17]; strain Farm 2 2011/3
  Susceptibility to (30 μg disc): S
[17]; strain Farm 2 2011/4
  Susceptibility to (30 μg disc): S
[17]; strain Farm 3 2011/1
  Susceptibility to (30 μg disc): S
[17]; strain Farm 3 2011/2
  Susceptibility to (30 μg disc): S
[17]; strain Farm 3 2011/3
  Susceptibility to (30 μg disc): S
[17]; strain Farm 4 2011/1
  Susceptibility to (30 μg disc): S
[17]; strain Farm 4 2011/2
  Susceptibility to (30 μg disc): S
[17]; strain Farm 4 2011/3
  Susceptibility to (30 μg disc): S
[17]; taxon A: Campylobacter novel (n=23)
  resistance (share of strains positive): V (V, 26-74% of strains positive)
[18]
  resistance (share of strains positive): − (−, 0-10% of strains positive)
[19]
  resistance (share of strains positive): − (−, 0-10% of strains positive)
[20]
  resistance (share of strains positive): − (−, 0-10% of strains positive)
[21]
  resistance (share of strains positive): + (+, 90-100% of strains positive)
[22]
  resistance (share of strains positive): − (−, 0-10% of strains positive)
[23]
  resistance (share of strains positive): − (−, 0-10% of strains positive)
[24]
  resistance (share of strains positive): (−) ((−), 11-25% of strains positive)

## O=C(N[C@H](CO)[C@H](O)c1ccc([N+](=O)[O-])cc1)C(Cl)Cl [Chloramphenicol]
[1]; Campylobacter
  MIC50: 4 µg/mL (≈ 12.4 µM)
  MIC90: 8 µg/mL (≈ 24.8 µM)

## O=C(O)c1cn(C2CC2)c2cc(N3CCNCC3)c(F)cc2c1=O [Ciprofloxacin]
[1]; Campylobacter
  MIC50: 0.06 µg/mL (≈ 0.181 µM)
  MIC90: 0.06 µg/mL (≈ 0.181 µM)

## CC[C@H]1OC(=O)[C@H](C)[C@@H](O[C@H]2C[C@@](C)(OC)[C@@H](O)[C@H](C)O2)[C@H](C)[C@@H](O[C@@H]2O[C@H](C)C[C@H](N(C)C)[C@H]2O)[C@](C)(O)C[C@@H](C)C(=O)[C@H](C)[C@@H](O)[C@]1(C)O [Ertythromycin, Erythromycin]
[1]; Campylobacter
  MIC50: 1 µg/mL (≈ 1.36 µM)
  MIC90: 2 µg/mL (≈ 2.73 µM)

## NC[C@H]1O[C@H](O[C@H]2[C@H](O)[C@@H](O[C@H]3O[C@H](CO)[C@@H](O)[C@H](N)[C@H]3O)[C@H](N)C[C@@H]2N)[C@H](O)[C@@H](O)[C@@H]1O [Kanamycin]
[1]; Campylobacter
  MIC50: 4 µg/mL (≈ 8.26 µM)
  MIC90: 4 µg/mL (≈ 8.26 µM)

## [H]/N=C(/N)N[C@H]1[C@H](O)[C@@H](O)[C@H](O[C@@H]2O[C@@H](C)[C@](O)(C=O)[C@H]2O[C@@H]2O[C@@H](CO)[C@H](O)[C@@H](O)[C@@H]2NC)[C@@H](N/C(N)=N\[H])[C@@H]1O [Streptomycin]
[1]; Campylobacter
  MIC50: 1 µg/mL (≈ 1.72 µM)
  MIC90: 1 µg/mL (≈ 1.72 µM)

## CN(C)[C@@H]1C(O)=C(C(N)=O)C(=O)[C@@]2(O)C(O)=C3C(=O)c4c(O)cccc4[C@@](C)(O)[C@H]3C[C@@H]12 [Tetracycline]
[1]; Campylobacter
  MIC50: 1 µg/mL (≈ 2.25 µM)
  MIC90: 64 µg/mL (≈ 144 µM)

## C=C[C@]1(C)C[C@@H](OC(=O)CSCCN(CC)CC)[C@]2(C)[C@H](C)CC[C@]3(CCC(=O)[C@H]32)[C@@H](C)[C@@H]1O [Tiamulin]
[1]; Campylobacter
  MIC50: 2 µg/mL (≈ 4.05 µM)
  MIC90: 2 µg/mL (≈ 4.05 µM)

## Colistin
[1]; agar dilution on HBA
  Distribution (%) of MIC (μg/ml) 0.03: 0%
  Distribution (%) of MIC (μg/ml) 0.06: 0%
  Distribution (%) of MIC (μg/ml) 0.13: 0%
  Distribution (%) of MIC (μg/ml) 0.25: 0%
  Distribution (%) of MIC (μg/ml) 1: 0%
  Distribution (%) of MIC (μg/ml) 2: 0%
  Distribution (%) of MIC (μg/ml) 4: 8.70%
  Distribution (%) of MIC (μg/ml) 8: 73.91%
  Distribution (%) of MIC (μg/ml) 32: 13.04%
  Distribution (%) of MIC (μg/ml) 64: 0%
[1]; % of novel strains with MIC 0.50 μg/ml, agar dilution on HBA
  Distribution (%) of MIC (μg/ml) 0.50: 0%
[1]; [25]
  MIC50: 8 µg/mL
  MIC90: 32 µg/mL

## Gentamycin
[1]; agar dilution on HBA
  Distribution (%) of MIC (μg/ml) 0.03: 0%
  Distribution (%) of MIC (μg/ml) 0.06: 0%
  Distribution (%) of MIC (μg/ml) 0.13: 0%
  Distribution (%) of MIC (μg/ml) 1: 0%
  Distribution (%) of MIC (μg/ml) 2: 0%
  Distribution (%) of MIC (μg/ml) 4: 0%
  Distribution (%) of MIC (μg/ml) 8: 0%
  Distribution (%) of MIC (μg/ml) 32: 0%
  Distribution (%) of MIC (μg/ml) 64: 0%
[1]; [25]
  MIC50: 0.5 µg/mL and 0.50 µg/mL
  MIC90: 0.5 µg/mL and 0.50 µg/mL

## Polymyxin B
[1]; agar dilution on HBA
  Distribution (%) of MIC (μg/ml) 0.03: 0%
  Distribution (%) of MIC (μg/ml) 0.06: 0%
  Distribution (%) of MIC (μg/ml) 0.13: 0%
  Distribution (%) of MIC (μg/ml) 0.25: 0%
  Distribution (%) of MIC (μg/ml) 1: 0%
  Distribution (%) of MIC (μg/ml) 2: 0%
  Distribution (%) of MIC (μg/ml) 4: 21.74%
  Distribution (%) of MIC (μg/ml) 8: 56.52%
  Distribution (%) of MIC (μg/ml) 32: 8.70%
  Distribution (%) of MIC (μg/ml) 64: 0%
[1]; [25]
  MIC50: 8 µg/mL
  MIC90: 16 µg/mL
